US7112601B2, “Cycloalkyl heterocycles for treating hepatitis C virus” (priority 2003, dated 2006)

Biological target: T1, HCV NS5B RdRp (Hepatitis C virus genotype 1b, UniProt Q9WMX2)
T1 construct: The protein was expressed with an 18 amino acid C-terminal truncation to enhance the solubility; made in house; host or cells: E. coli BL21(DE3)
Experiment: HCV NS5B RdRp enzyme inhibition assay
Format: biochemical
Method: HCV NS5B RdRp cloning, expression, and purification. The cDNA encoding the NS5B protein of HCV, genotype 1b, was cloned into the pET21a expression vector. The protein was expressed with an 18 amino acid C-terminal truncation to enhance the solubility. The E. coli competent cell line BL21(DE3) was used for expression of the protein. Cultures were grown at 37° C. for ˜4 hours until the cultures reached an optical density of 2.0 at 600 nm. The cultures were cooled to 20° C. and induced with 1 mM IPTG. Fresh ampicillin was added to a final concentration of 50 ug/ml and the cells were grown overnight at 20° C.
Cell pellets (3L) were lysed for purification to yield 15–24 mgs of purified NS5B. The lysis buffer consisted of 20 mM Tris-HCl, pH 7.4, 500 mM NaCl, 0.5% triton X-100, 1 mM DTT, 1 mM EDTA, 20% glycerol, 0.5 mg/ml lysozyme, 10 mM MgCl2, 15 ug/ml deoxyribonuclease I, and Complete TM protease inhibitor tablets (Roche). After addition of the lysis buffer, frozen cell pellets were resuspended using a tissue homogenizer. To reduce the viscosity of the sample, aliquots of the lysate were sonicated on ice using a microtip attached to a Branson sonicator. The sonicated lysate was centrifuged at 100,000×g for 1 hr at 4° C. and filtered through a 0.2 μm filter unit (Corning).
The protein was purified using three sequential chromatography steps: Heparin sepharose CL-6B, polyU sepharose 4B, and Hitrap SP sepharose (Pharmacia). The chromatography buffers were identical to the lysis buffer but contained no lysozyme, deoxyribonuclease I, MgCl2 or protease inhibitor and the NaCl concentration of the buffer was adjusted according to the requirements for charging the protein onto the column. Each column was eluted with a NaCl gradient which varied in length from 5–50 column volumes depending on the column type. After the final chromatography step, the resulting purity of the enzyme is >90% based on SDS-PAGE analysis. The enzyme was aliquoted and stored at −80° C.
HCV NS5B RdRp enzyme assay. HCV RdRp genotype 1b assays were run in assay buffer composed of 20 mM Tris-HCl, pH 7.5, 2.5 mM KCl, 5 mM MgCl2, 1 mM DTT, 1.6 U RNAse inhibitor (Promega N2515), in 96 well plates (Falcon 3918). All compounds were serially diluted in DMSO and diluted further in assay buffer such that the final concentration of DMSO in the assay was 2%. Compounds were serially diluted (3-fold each time) for a 7 point inhibition analysis. HCV RdRp genotype 1b enzyme was used at a final concentration of 28 nM. A polyA template was used at 28 nM, and the oligo-dT12-18 primer was used at 840 nM final concentration. Preannealed primer and template were obtained commercially (Amersham 27-787802). ^3H-UTP was used at 0.125 μCi (1 μM total UTP). Reaction was initiated by the addition of enzyme. Reactions were incubated at 30° C. for 45 min, and stopped by adding 30 ul of 20% ice cold TCA. Plates were chilled for 30 minutes and harvested onto Unifilter-96, GF/B plates (Packard, 6005177) using a Packard FilterMate Cell Harvester. The harvest plates were prewashed 3 times, 200 ul/well, with 100 mM NaPPi. Harvested filters were washed 30 times, 200 ul/well, with distilled water followed by ethanol. Filter plates were dried, and 30 ul/well microscint-20 was added. Plates were read on a Packard Top Count NXT.
The IC50 values for compounds were determined using […] different [I], combined with 7 nM enzyme, 800 ng of the template-primer polyC/oligoG12 (1:5 molar ratio), and 0.7 uM of ^3H GTP containing 1 uCi. The observed fractional activity (fa=vi/vo) was used in the equation IC50=[I]/(1/fa-1) to determine a single point IC50 value. Typically, the single point IC50 values derived from [I] that produced fractional activities in the range of 0.1 to 0.8 relative to the uninhibited control were averaged to calculate the IC50 value for each compound.

T1 sequence (Q9WMX2 2420-2992): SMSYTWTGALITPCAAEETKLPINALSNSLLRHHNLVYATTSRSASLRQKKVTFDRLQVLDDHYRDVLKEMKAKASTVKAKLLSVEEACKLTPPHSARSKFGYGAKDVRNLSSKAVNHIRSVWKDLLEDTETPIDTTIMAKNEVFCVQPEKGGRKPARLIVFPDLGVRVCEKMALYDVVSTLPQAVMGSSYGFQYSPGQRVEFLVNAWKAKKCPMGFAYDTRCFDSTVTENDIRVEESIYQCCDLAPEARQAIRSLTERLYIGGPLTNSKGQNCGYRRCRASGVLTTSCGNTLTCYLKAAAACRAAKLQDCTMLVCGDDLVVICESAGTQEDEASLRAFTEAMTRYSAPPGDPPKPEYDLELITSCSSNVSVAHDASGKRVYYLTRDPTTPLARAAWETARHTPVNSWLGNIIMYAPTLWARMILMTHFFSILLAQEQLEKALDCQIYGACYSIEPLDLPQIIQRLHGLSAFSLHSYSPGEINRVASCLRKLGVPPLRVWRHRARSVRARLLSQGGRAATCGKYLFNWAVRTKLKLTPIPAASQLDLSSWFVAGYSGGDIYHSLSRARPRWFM

| Compound | IC50 |
| --- | --- |
| COc1ccc(-c2ccc(Cl)cc2)c(COc2ccc(-c3c(-c4ccccc4)c(/C=C/C(=O)O)nn3C3CCCCC3)cc2)c1 [Example 28] | 1.3 µM |
| COC(=O)/C=C/c1cc(-c2ccc(OCc3ccccc3)cc2)n(C2CCCCC2)n1 [Example 2, Methyl (2E)-3-{5-[4-(benzyloxy)phenyl]-1-cyclohexyl-1H-pyrazol-3-yl}-2-propenoate] | > 25 µM |
| C/C(=C\c1cc(C2CCCCC2)n(-c2ccc(OCc3ccccc3)cc2)n1)C(=O)O [Example 35, (2E)-3-{1-[4-(benzyloxy)phenyl]-5-cyclohexyl-1H-pyrazol-3-yl}-2-methyl-2-propenoic acid] | > 25 µM |
| COC(=O)/C=C/c1nn(C2CCCCC2)c(-c2ccc(OCc3ccccc3)cc2)c1Br [Example 23, Methyl (2E)-3-{5-[4-(benzyloxy)phenyl]-4-bromo-1-cyclohexyl-1H-pyrazol-3-yl}-2-propenoate] | > 25 µM |
| COc1ccc(-c2ccc(Cl)cc2)c(COc2ccc(-n3nc(/C=C/C(=O)O)cc3C3CCCCC3)cc2)c1 [Example 33, (2E)-3-(1-{4-[(4′-chloro-4-methoxy-1,1′-biphenyl-2-yl)methoxy]phenyl}-5-cyclohexyl-1H-pyrazol-3-yl)-2-propenoic acid] | 2.4 µM |
| O=C(O)/C=C/c1cc(-c2ccc(OCc3ccccc3)cc2)n(C2CCCCC2)n1 [Example 3, (2E)-3-[1-cyclohexyl-5-(4-benzyloxyphenyl)-1H-pyrazol-3-yl]-2-propenoic acid] | 15 µM |
| COc1ccc(-c2ccc(Cl)cc2)c(COc2ccc(-c3cc(/C=C(\C)C(=O)O)nn3C3CCCCC3)cc2)c1 [Example 9, (2E)-3-(5-{4-[(4′-chloro-4-methoxy-1,1′-biphenyl-2-yl)methoxy]phenyl}-1-cyclohexyl-1H-pyrazol-3-yl)-2-methyl-2-propenoic acid] | 0.27 µM |
| CNC(=O)c1ccc(-c2ccc(Cl)cc2)c(COc2ccc(-c3nc(/C=C(\C)C(=O)OC(C)(C)C)cn3C3CCCCC3)cc2)c1 [Example 53, Butoxy^t (2E)-3-(2-{4-[(4′-chloro-4-N-methylcarbamoyl-1,1′-biphenyl-2-yl)methoxy]phenyl}-1-cyclohexyl-1H-imidazol-4-yl)-2-methyl-2-propenoate] | > 25 µM |
| CCOC(=O)/C(C)=C/c1cc(C2CCCCC2)n(-c2ccc(OCc3cc(C(=O)NC)ccc3-c3ccc(Cl)cc3)cc2)n1 [Example 38] | > 25 µM |
| O=C(O)C#Cc1cc(-c2ccc(OCc3ccccc3)cc2)n(C2CCCCC2)n1 [Example 19, 3-{5-[4-(benzyloxy)phenyl]-1-cyclohexyl-1H-pyrazol-3-yl}-2-propynoic acid] | 4.9 µM |
| CNC(=O)c1ccc(-c2ccc(Cl)cc2)c(COc2ccc(-c3cc(/C=C(\C)C(=O)O)nn3C3CCCCC3)cc2)c1 [Example 13, (2E)-3-(5-{4-[(4′-Chloro-4-N-methylcarbamoyl-1,1′-biphenyl-2-yl)methoxy]phenyl}-1-cyclohexyl-1H-pyrazol-3-yl)-2-methyl-2-propenoic acid] | 0.38 µM |
| O=C(O)/C=C/c1nn(C2CCCCC2)c(-c2ccc(OCc3ccccc3)cc2)c1Br [Example 24, (2E)-3-{5-[4-(benzyloxy)phenyl]-4-bromo-1-cyclohexyl-1H-pyrazol-3-yl}-2-propenoic acid] | 3.1 µM |
| COC(=O)/C=C/c1nn(C2CCCCC2)c(-c2ccc(OCc3ccccc3)cc2)c1-c1ccccc1 [Example 25, Methyl (2E)-3-{5-[4-(benzyloxy)phenyl]-1-cyclohexyl-4-phenyl-1H-pyrazol-3-yl}-2-propenate] | > 25 µM |
| COc1ccc(-c2ccc(Cl)cc2)c(COc2ccc(-c3nc(/C=C/C(=O)O)cn3C3CCCCC3)cc2)c1 [Example 48, (2E)-3-(2-{4-[(4′-chloro-4-methoxy-1,1′-biphenyl-2-yl)methoxy]phenyl}-1-cyclohexyl-1H-imidazol-4-yl)-2-propenoic acid] | 5.3 µM |
| COC(=O)CCc1cc(C2CCCCC2)n(-c2ccc(OCc3ccccc3)cc2)n1 [Example 40, Methyl 3-{1-[4-(benzyloxy)phenyl]-5-cyclohexyl-1H-pyrazol-3-yl}propanoate] | > 25 µM |
| CCOC(=O)/C(C)=C/c1cc(C2CCCCC2)n(-c2ccc(OCc3ccccc3)cc2)n1 [Example 34, Ethyl (2E)-3-{1-[4-(benzyloxy)phenyl]-5-cyclohexyl-1H-pyrazol-3-yl}-2-methyl-2-propenoate] | > 25 µM |
| COC(=O)CCc1cc(-c2ccc(OCc3cc(OC)ccc3-c3ccc(Cl)cc3)cc2)n(C2CCCCC2)n1 [Example 16, Methyl 3-(5-{4-[(4′-chloro-4-methoxy-1,1′-biphenyl-2-yl)methoxy]phenyl}-1-cyclohexyl-1H-pyrazol-3-yl)propanoate] | > 25 µM |
| O=C(O)CCc1cc(C2CCCCC2)n(-c2ccc(OCc3ccccc3)cc2)n1 [Example 41] | 10 µM |
| COC(=O)CCc1cc(-c2ccc(OCc3ccccc3)cc2)n(C2CCCCC2)n1 [Example 14, Methyl 3-{5-[4-(benzyloxy)phenyl]-1-cyclohexyl-1H-pyrazol-3-yl}propanoate] | > 25 µM |
| COC(=O)CCc1cc(C2CCCCC2)n(-c2ccc(OCc3cc(OC)ccc3-c3ccc(Cl)cc3)cc2)n1 [Example 42, Methyl 3-(1-{4-[(4′-chloro-4-methoxy-1,1′-biphenyl-2-yl)methoxy]phenyl}-5-cyclohexyl-1H-pyrazol-3-yl)propanoate] | > 25 µM |
| COC(=O)/C=C/c1cn(C2CCCCC2)c(-c2ccc(OCc3cc(OC)ccc3-c3ccc(Cl)cc3)cc2)n1 [Example 47, Methyl (2E)-3-(2-{4-[(4′-chloro-4-methoxy-1,1′-biphenyl-2-yl)methoxy]phenyl}-1-cyclohexyl-1H-imidazol-4-yl)-2-propenoate] | > 25 µM |
| COC(=O)/C=C/c1cc(-c2ccc(OCc3cc(OC)ccc3-c3ccc(Cl)cc3)cc2)n(C2CCCCC2)n1 [Example 4, Methyl (2E)-3-(5-{4-[(4′-chloro-4-methoxy-1,1′-biphenyl-2-yl)methoxy]phenyl}-1-cyclohexyl-1H-pyrazol-3-yl)-2-propenoate] | > 25 µM |
| CCOC(=O)c1cc(C2CCCCC2)n(-c2ccc(OCc3ccccc3)cc2)n1 [Example 29, Ethyl 1-[4-(benzyloxy)phenyl]-5-cyclohexyl-1H-pyrazole-3-carboxylate] | > 25 µM |
| O=C(O)CCc1cc(-c2ccc(OCc3ccccc3)cc2)n(C2CCCCC2)n1 [Example 15, 3-{5-[4-(benzyloxy)phenyl]-1-cyclohexyl-1H-pyrazol-3-yl}propanoic acid] | > 25 µM |
| COc1ccc(-c2ccc(Cl)cc2)c(COc2ccc(-n3nc(CCC(=O)O)cc3C3CCCCC3)cc2)c1 [Example 43, 3-(1-{4-[(4′-chloro-4-methoxy-1,1′-biphenyl-2-yl)methoxy]phenyl}-5-cyclohexyl-1H-pyrazol-3-yl)propanoic acid] | 0.31 µM |
| CCOC(=O)/C(C)=C/c1cc(C2CCCCC2)n(-c2ccc(OCc3cc(OC)ccc3-c3ccc(Cl)cc3)cc2)n1 [Example 36, Ethyl (2E)-3-(1-{4-[(4′-chloro-4-methoxy-1,1′-biphenyl-2-yl)methoxy]phenyl}-5-cyclohexyl-1H-pyrazol-3-yl)-2-methyl-2-propenoate] | > 25 µM |
| CCOC(=O)/C(C)=C/c1cn(C2CCCCC2)c(-c2ccc(OCc3cc(OC)ccc3-c3ccc(Cl)cc3)cc2)n1 [Example 51, Ethyl (2E)-3-(2-{4-[(4′-chloro-4-methoxy-1,1′-biphenyl-2-yl)methoxy]phenyl}-1-cyclohexyl-1H-imidazol-4-yl)-2-methyl-2-propenoate] | > 25 µM |
